Experimental data from ChEMBL document CHEMBL5244209, “Antiplasmodial and antimalarial activities of quinolone derivatives: An overview” (Eur J Med Chem, 2018).
In brackets after ≈: the same amount, converted by molar mass.

Assays:
Plasmodium falciparum [1] = experiment: Antimalarial activity against Antimalarial activity against chloroquine-sensitive Plasmodium falciparum FCR-3; type: functional, organism-based
Plasmodium falciparum [2] = experiment: Antiplasmodial activity against Plasmodium falciparum Dd2 infected in human Erythrocyte measured after 72 hrs by SYBR green fluorescence dye based microplate reader analysis; type: functional, organism-based
Plasmodium falciparum [3] = experiment: Antiplasmodial activity against Plasmodium falciparum D6 infected in human Erythrocyte measured after 72 hrs by SYBR green fluorescence dye based microplate reader analysis; type: functional, organism-based
Plasmodium falciparum [4] = experiment: Antiplasmodial activity against Plasmodium falciparum Tm90-C2B infected in human Erythrocyte measured after 72 hrs by SYBR green fluorescence dye based microplate reader analysis; type: functional, organism-based
Plasmodium yoelii yoelii = experiment: Antimalarial activity against hepatic stage Plasmodium yoelii yoelii 265 BY for 48 hrs with media renew every 24 hrs; type: functional, organism-based
Plasmodium falciparum [5] = experiment: Antimalarial activity against blood stage chloroquine-sensitive Plasmodium falciparum NF54-R infected in erythrocytes assessed as reduction in parasite growth preincubated for 72 hrs followed by addition of [3H]Hypoxanthine and measured after 24 hrs by liquid scintillation counting method; type: functional, organism-based; conditions: Erythrocyte
Plasmodium falciparum [6] = experiment: Antimalarial activity against blood stage chloroquine-sensitive Plasmodium falciparum 3D7 infected in erythrocytes assessed as reduction in parasite growth preincubated for 72 hrs followed by addition of [3H]Hypoxanthine and measured after 24 hrs by liquid scintillation counting method; type: functional, organism-based; conditions: 3D7, Erythrocyte
Plasmodium falciparum [7] = experiment: Antimalarial activity against chloroquine-sensitive Plasmodium falciparum 3D7; type: functional, organism-based
FM3A = experiment: Cytotoxicity against mouse FM3A cells; type: functional, cell-based
Plasmodium falciparum [8] = experiment: Antiplasmodial activity against chloroquine-sensitive Plasmodium falciparum 3D7 infected in human erythrocyte incubated for 72 hrs by SYBR green I staining based fluorescence assay; type: functional, organism-based; conditions: 3D7, Erythrocyte
Plasmodium falciparum [9] = experiment: Antimalarial activity against chloroquine-sensitive Plasmodium falciparum FCC1 measured after 48 hrs; type: functional, organism-based; conditions: FCC1, 48 h
Plasmodium falciparum [10] = experiment: Antimalarial activity against chloroquine-resistant Plasmodium falciparum VNS measured after 48 hrs; type: functional, organism-based
Plasmodium berghei = experiment: Antiplasmodial activity against liver stage Plasmodium berghei ANKA infected in human HepG2 cells measured after 44 hrs; type: functional, organism-based; conditions: HepG2, 44 h
Plasmodium falciparum [11] = experiment: Antiplasmodial activity against asynchronous Plasmodium falciparum CS2; type: functional, organism-based
Plasmodium falciparum [12] = experiment: Antiplasmodial activity against synchronized Plasmodium falciparum 3D7; type: functional, organism-based
Plasmodium falciparum [13] = experiment: Antiplasmodial activity against asynchronous Plasmodium falciparum 3D7; type: functional, organism-based
Plasmodium falciparum [14] = experiment: Antiplasmodial activity against synchronized Plasmodium falciparum K1; type: functional, organism-based
Plasmodium falciparum [15] = experiment: Antiplasmodial activity against asynchronous Plasmodium falciparum K1; type: functional, organism-based

Structure (SMILES): Cn1cc(C(=O)N/N=C/c2ccccn2)c(=O)c2cc(F)ccc21
- IC50 (Plasmodium falciparum [1]): 3.3 µM

Structure (SMILES): CCCCCc1c(C)[nH]c2cc(OC)ccc2c1=O
- IC50 (Plasmodium falciparum [2]): 12 nM
- IC50 (Plasmodium falciparum [3]): 8 nM
- IC50 (Plasmodium falciparum [4]): 0.052 µM

Structure (SMILES): CC1CCc2cc(F)cc3c(=O)c(C(=O)O)cn1c23 (stereo unspecified) [FLUMEQUINE]
- IC50 (Plasmodium yoelii yoelii): > 100 µg/mL
- IC50 (Plasmodium falciparum [5]): 14.1 µg/mL (≈ 54 µM)
- IC50 (Plasmodium falciparum [6]): 38.3 µg/mL (≈ 147 µM)

Structure (SMILES): CCOC(=O)c1cn(/C=C(\C(=O)O)c2cccnc2)c2ccc(F)cc2c1=O
- IC50 (Plasmodium falciparum [7]): 29 µM
- IC50 (FM3A): > 100 µM

Structure (SMILES): C=CC1CC2CCC1CC2[C@H](OC(=O)CNC(=O)C1=CN2C3C(=C(N4CCN(C)CC4)C(F)=CC3C1=O)OC[C@@H]2C)c1cccc2ccc(OC)cc12 (stereo partly specified)
- IC50 (Plasmodium falciparum [8]): 0.012 µM

Structure (SMILES): CCCCCCCc1c(C)[nH]c2cc(OC(F)(F)F)ccc2c1=O
- IC50 (Plasmodium falciparum [2]): 86 nM
- IC50 (Plasmodium falciparum [3]): 86 nM
- IC50 (Plasmodium falciparum [4]): 0.102 µM

Structure (SMILES): Cn1cc(C(=O)N/N=C/c2ccncc2)c(=O)c2cc(F)ccc21
- IC50 (Plasmodium falciparum [1]): > 100 µM

Structure (SMILES): CNn1cc(C(=O)O)c(=O)c2cc(F)c(N3CCN(C)CC3)cc21 [AMIFLOXACIN]
- IC50 (Plasmodium falciparum [9]): 550 µM
- IC50 (Plasmodium falciparum [10]): 870 µM

Structure (SMILES): CCCCCCCc1c(C)[nH]c2cc(C#N)ccc2c1=O
- IC50 (Plasmodium falciparum [2]): 45 nM
- IC50 (Plasmodium falciparum [3]): 18 nM

Structure (SMILES): Cn1cc(C(=O)N/N=C/c2ccccn2)c(=O)c2cc(C(F)(F)F)ccc21
- IC50 (Plasmodium falciparum [1]): 6.2 µM

Structure (SMILES): O=C(O)/C(=C\n1cc(C(=O)O)c(=O)c2cc(F)ccc21)c1cccnc1
- IC50 (Plasmodium falciparum [7]): 24 µM
- IC50 (FM3A): > 100 µM

Structure (SMILES): CCOC(=O)/C(=C\n1cc(C(=O)OCC)c(=O)c2cc(F)ccc21)c1ccncc1
- IC50 (Plasmodium falciparum [7]): 8.2 µM
- IC50 (FM3A): > 24 µM

Structure (SMILES): CCCCCCCc1c(C)nc2cc(OC)ccc2c1O
- IC50 (Plasmodium falciparum [2]): 3 nM
- IC50 (Plasmodium falciparum [3]): 4 nM
- IC50 (Plasmodium falciparum [4]): 0.011 µM

Structure (SMILES): COc1c(N2CCNC(C)C2)c(F)cc2c(=O)c(C(=O)O)cn(C3CC3)c12 (stereo unspecified) [GATIFLOXACIN]
- IC50 (Plasmodium yoelii yoelii): > 100 µg/mL
- IC50 (Plasmodium falciparum [5]): 10.9 µg/mL (≈ 29 µM)
- IC50 (Plasmodium falciparum [6]): 34.8 µg/mL (≈ 92.7 µM)

Structure (SMILES): CCn1cc(C(=O)O)c(=O)c2cnc(N3CCNCC3)nc21 [PIPEMIDIC ACID]
- IC50 (Plasmodium yoelii yoelii): > 100 µg/mL
- IC50 (Plasmodium falciparum [5]): 10.5 µg/mL (≈ 34.6 µM)
- IC50 (Plasmodium falciparum [6]): 40.9 µg/mL (≈ 135 µM)

Structure (SMILES): CCn1cc(C(=O)O)c(=O)c2cc(F)c(N3CCN(C)CC3)cc21 [PEFLOXACIN]
- IC50 (Plasmodium yoelii yoelii): 86.3 µg/mL (≈ 259 µM)
- IC50 (Plasmodium falciparum [5]): 6.5 µg/mL (≈ 19.5 µM)
- IC50 (Plasmodium falciparum [6]): 83.7 µg/mL (≈ 251 µM)
- IC50 (Plasmodium falciparum [9]): 1300 µM
- IC50 (Plasmodium falciparum [10]): 850 µM

Structure (SMILES): Cn1cc(C(=O)N/N=C/c2ccncc2)c(=O)c2cc(C(F)(F)F)ccc21
- IC50 (Plasmodium falciparum [1]): > 100 µM

Structure (SMILES): CCn1cc(C(=O)O)c(=O)c2cc3c(cc21)OCO3 [OXOLINIC ACID]
- IC50 (Plasmodium yoelii yoelii): > 100 µg/mL
- IC50 (Plasmodium falciparum [5]): 42.2 µg/mL (≈ 162 µM)
- IC50 (Plasmodium falciparum [6]): 130 µg/mL (≈ 496 µM)
- IC50 (Plasmodium falciparum [8]): > 10 µM

Structure (SMILES): CCN(CC)CCCC(C)Nc1ccnc2cc(Cl)ccc12 (stereo unspecified) [CHLOROQUINE]
- IC50 (Plasmodium berghei): > 0.0012 µM

Structure (SMILES): CCCCc1c(C)[nH]c2cc(OC)ccc2c1=O
- IC50 (Plasmodium falciparum [2]): 29 nM
- IC50 (Plasmodium falciparum [3]): 29 nM
- IC50 (Plasmodium falciparum [4]): 0.092 µM

Structure (SMILES): C=CC1CC2CCC1CC2[C@H](OC(=O)[C@H](Cc1ccccc1)NC(=O)C1=CN2C3C(=C(N4CCN(C)CC4)C(F)=CC3C1=O)OC[C@@H]2C)c1cccc2ccc(OC)cc12 (stereo partly specified)
- IC50 (Plasmodium falciparum [8]): 0.048 µM

Structure (SMILES): N[C@@H]1[C@H]2CN(c3nc4c(cc3F)c(=O)c(C(=O)O)cn4-c3ccc(F)cc3F)C[C@@H]12 [TROVAFLOXACIN]
- IC50 (Plasmodium falciparum [5]): 9.2 µg/mL (≈ 22.1 µM)
- IC50 (Plasmodium falciparum [6]): 9.6 µg/mL (≈ 23.1 µM)
- IC50 (Plasmodium falciparum [11]): 34 µM
- IC50 (Plasmodium falciparum [12]): 34 µM
- IC50 (Plasmodium falciparum [13]): 36 µM
- IC50 (Plasmodium falciparum [14]): 18 µM
- IC50 (Plasmodium falciparum [15]): 33 µM

Structure (SMILES): CCn1cc(C(=O)O)c(=O)c2ccc(-c3ccncc3)cc21 [ROSOXACIN]
- IC50 (Plasmodium falciparum [5]): 10.6 µg/mL (≈ 36 µM)
- IC50 (Plasmodium falciparum [6]): 87.9 µg/mL (≈ 299 µM)

Structure (SMILES): C=CC1CC2CCC1CC2[C@H](OC(=O)CNC(=O)C1=CN(C2CC2)C2C=C(N3CCN(CC)CC3)C(F)=CC2C1=O)c1cccc2ccc(OC)cc12 (stereo partly specified)
- IC50 (Plasmodium falciparum [8]): 0.028 µM

Structure (SMILES): CCOC(=O)/C(=C\n1cc(C(=O)OCC)c(=O)c2cc(F)ccc21)c1ccccn1
- IC50 (Plasmodium falciparum [7]): 21 µM
- IC50 (FM3A): > 100 µM

Structure (SMILES): C=C[C@H]1CN2CC[C@H]1C[C@H]2[C@H](O)c1ccnc2ccc(OC)cc12 [QUININE]
- IC50 (Plasmodium falciparum [8]): 0.018 µM
- IC50 (Plasmodium falciparum [1]): 0.11 µM

Structure (SMILES): COc1cc2[nH]c(C)c(-c3ccc(C(F)(F)F)cc3)c(=O)c2cc1Cl
- IC50 (Plasmodium berghei): 0.00307 µM

Structure (SMILES): CCn1cc(C(=O)O)c(=O)c2cc(F)c(-n3cccc3)cc21 [IRLOXACIN]
- IC50 (Plasmodium yoelii yoelii): > 100 µg/mL
- IC50 (Plasmodium falciparum [5]): 10.5 µg/mL (≈ 35 µM)
- IC50 (Plasmodium falciparum [6]): 49.4 µg/mL (≈ 165 µM)

Structure (SMILES): CN1CCN(c2c(F)cc3c(=O)c(C(=O)O)cn4c3c2OCN4C)CC1 [MARBOFLOXACIN]
- IC50 (Plasmodium yoelii yoelii): > 100 µg/mL
- IC50 (Plasmodium falciparum [5]): 21.6 µg/mL (≈ 59.6 µM)
- IC50 (Plasmodium falciparum [6]): 30.8 µg/mL (≈ 85 µM)

Structure (SMILES): Nc1ccc2c(=O)c3ccc(OCCCCCC(F)(F)F)cc3[nH]c2c1
- IC50 (Plasmodium falciparum [2]): 0.02 nM
- IC50 (Plasmodium falciparum [3]): 0.02 nM
- IC50 (Plasmodium falciparum [4]): 0.078 µM
